B1: CO3A1: Collagen 3A1 recombinant protein (R&D Systems) coated on culture plates (protein, UniProt P02461 154-1221, looked up)
Collagen alpha-1(III) chain: QYDSYDVKSGVAVGGLAGYPGPAGPPGPPGPPGTSGHPGSPGSPGYQGPPGEPGQAGPSGPPGPPGAIGPSGPAGKDGESGRPGRPGERGLPGPPGIKGPAGIPGFPGMKGHRGFDGRNGEKGETGAPGLKGENGLPGENGAPGPMGPRGAPGERGRPGLPGAAGARGNDGARGSDGQPGPPGPPGTAGFPGSPGAKGEVGPAGSPGSNGAPGQRGEPGPQGHAGAQGPPGPPGINGSPGGKGEMGPAGIPGAPGLMGARGPPGPAGANGAPGLRGGAGEPGKNGAKGEPGPRGERGEAGIPGVPGAKGEDGKDGSPGEPGANGLPGAAGERGAPGFRGPAGPNGIPGEKGPAGERGAPGPAGPRGAAGEPGRDGVPGGPGMRGMPGSPGGPGSDGKPGPPGSQGESGRPGPPGPSGPRGQPGVMGFPGPKGNDGAPGKNGERGGPGGPGPQGPPGKNGETGPQGPPGPTGPGGDKGDTGPPGPQGLQGLPGTGGPPGENGKPGEPGPKGDAGAPGAPGGKGDAGAPGERGPPGLAGAPGLRGGAGPPGPEGGKGAAGPPGPPGAAGTPGLQGMPGERGGLGSPGPKGDKGEPGGPGADGVPGKDGPRGPTGPIGPPGPAGQPGDKGEGGAPGLPGIAGPRGSPGERGETGPPGPAGFPGAPGQNGEPGGKGERGAPGEKGEGGPPGVAGPPGGSGPAGPPGPQGVKGERGSPGGPGAAGFPGARGLPGPPGSNGNPGPPGPSGSPGKDGPPGPAGNTGAPGSPGVSGPKGDAGQPGEKGSPGAQGPPGAPGPLGIAGITGARGLAGPPGMPGPRGSPGPQGVKGESGKPGANGLSGERGPPGPQGLPGLAGTAGEPGRDGNPGSDGLPGRDGSPGGKGDRGENGSPGAPGAPGHPGPPGPVGPAGKSGDRGESGPAGPAGAPGPAGSRGAPGPQGPRGDKGETGERGAAGIKGHRGFPGNPGAPGSPGPAGQQGAIGSPGPAGPRGPVGPSGPPGKDGTSGHPGPIGPPGPRGNRGERGSEGSPGHPGQPGPPGPPGAPGPCCGGVGAAAIAGIGGEKAGGFAPYYG

What was measured:
[1] = system: differentiated human adipocytes; test: Thermogenic gene expression in human adipocytes in vitro by real-time PCR; assay type: cell-based
Experimental: RNA from iWAT tissue and cells was isolated and purified using a Qiagen Rneasy Mini Kit (Valencia, CA) according to manufacturer guidelines. mRNA concentrations were measured using a Take3 Micro-Volume Plate (BioTek, Winooski, VT), then normalized to 150 ng of mRNA for conversion to cDNA. cDNA was synthetized using random hexamer primers and an iScript cDNA-synthesis kit (Biorad). The quantitative RT-PCR reactions were performed using the So Advanced™ Universal SYBER Green Supermix kit (Biorad) in a CFX96 Touch Real-Time PCR Detection System (BioRad, Hercules, CA). Fold expression levels were calculated using the […]. Transcript levels were normalized to 18S ribosomal RNA levels in all experiments. Primer (Table 1) specificity was tested by assessing the melting curve.

[2] = system: adipose derived stem cells (ASCs) isolated from WT SubQ WAT; test: Beige differentiation of ASCs on ECM protein coated surfaces, beige marker expression by RT-PCR; assay type: cell-based, mice; settings: for reduction in UCP1 relative to uncoated surfaces: ASCs beige-differentiated on coated surface; for COX7A1 expression: differentiated cells on coated surface
Experimental: Immunohistochemistry. SubQ fat was harvested from animals using sterile techniques, cut into small pieces and fixed in 4% paraformaldehyde for 24 hours at 4 degrees. Tissue pieces were then washed with phosphate buffered saline (PBS), permeabilized with 0.5% triton in PBS and blocked with 10% donkey serum; followed by incubation with either 1) ITA7 antibody (1:100, Novus Biologics NBP1-86,118) and Griffonia simplicifolia isolectin conjugated with Rhodamine to labels endothelial cells, or 2) ITA7 antibody and CD68 antibody (1:100, Santa Cruz sc-70761) to label macrophages for 48 hours at 4 degrees. After washes (3×15 minutes), the tissues were incubated with second antibodies (Alexa Fluor 647 Donkey Anti-Rabbit IgG and/or TRITC Goat Anti-Mouse, IgG), BODIPY to stain lipid droplets and DAPI to stain the nuclei, for 2 hours at room temperature. Confocal imaging. A confocal laser-scanning microscope was used to image samples (Leica TCS SP8 Confocal Microscope; Buffalo Grove, IL). Adipocytes labeled by BODIPY and ITA7 labeled by Alexa Fluor 647 were imaged simultaneously in two channels, with Rhodamine-labeled endothelial tissue or TRITC CD68-labeled macrophages, and DAPI nuclei imaged in series. Confocal image stacks were obtained with a 63×oil immersion lens (NA 1.4). Laser intensity, confocal aperture, and photomultiplier gain were kept constant across samples. Image processing and analysis: Confocal image stacks were processed and analyzed using Leica LASX software version 3.5.2 (Wetzlar, Germany). The Alexa 647 and Rhodamine channels were thresholded and the intersection between both layers was quantified in order to characterize the colocalization between ITA7 and endothelial cells. In separate tissue, the colocalization between ITA7 and CD68 positive cells was also quantified. Using 3D images, the Alexa 647, Rhodamine or TRITC and intersection area per cell were calculated. cytoNet image analysis: cytoNet is a software accessible over the web that quantifies the spatial relationships in cell communities using principles of graph theory and evaluates the effect of cell-cell interactions on individual cell phenotypes (https://www.braininitiative.org/toolmakers/resources/cytonet/). Image files were segmented manually and provided as input to cytoNet. Because blood vessels have noncircular shapes, the minimum distance between object perimeters was computed in order to define graph edges. The resulting cell-to-cell perimeter distance and cells characteristics were analyzed in WT and KO SubQ WAT images. RNA isolation and quantitative RT-PCR. RNA from tissue and cells was isolated and purified using a Qiagen RNeasy Mini Kit (Valencia, CA) according to manufacturer guidelines. mRNA concentrations were measured using a Take3 Micro-Volume Plate (BioTek. Winooski, VT), then normalized to 150 ng of mRNA for conversion to cDNA. cDNA was synthetized using random hexamer primers and an iScript cDNA-synthesis kit (Biorad). The quantitative RT-PCR reactions were performed using the So Advanced™ Universal SYBER Green Supermix kit (Biorad) in a CFX96 Touch Real-Time PCR Detection System (BioRad, Hercules. CA). Fold expression levels were calculated using the 2^ΔΔCt method. Transcript levels were normalized to 18S ribosomal RNA levels in all experiments that used mice cells (FIGS. 3, 4, 7), or the GAPDH reference gene in experiments with human cells (FIG. 6). Primer (Table 1) specificity was tested by the assessing the melting curve. Western blot analysis. Cells were lysed using CelLytic (Sigma, St. Louis, MO) and tissue was lysed using RIPA buffer (EMD Millipore, Billerica, MA) and protease inhibitor cocktail (Fischer Scientific, Waltham, MA). Protein concentration was determined using the Bio-Rad DC protein assay (Bio-Rad Laboratories, Hercules. CA). […]

ASCs = test: Hydrogen peroxide (ROS-Glo H2O2) assay of ASCs differentiated on coated surfaces; assay type: cell-based, mice; settings: compared to uncoated surface

| Molecule | peak of efficacy on browning after administration [1] | increase in Cox7A1 gene expression ([1]; 6 h of treatment) [fold] | increase in UCP1 gene expression ([1]; 6 h of treatment) | reduction in UCP1 relative to uncoated surfaces [2] [%] | PGC1A levels ([2]; compared to uncoated surfaces) | COX7A1 expression [2] | ROS levels (ASCs) |
| --- | --- | --- | --- | --- | --- | --- | --- |
| C=C[C@@]1(C)CC(=O)[C@]2(O)[C@@]3(C)[C@@H](O)CCC(C)(C)[C@@H]3[C@H](O)[C@H](OC(C)=O)[C@@]2(C)O1 [FSK, (13R)-1α,6β,9α-Trihydroxy-11-oxo-8α,13-epoxylabd-14-en-7β-yl acetate] | ~ 6 h | 1.5 | ~ 5 fold | – | – | – | – |
| CO1A1: Collagen 1A1 recombinant protein (R&D Systems) coated on culture plates | – | – | – | 71.7 | significant decrease | significant decrease | – |
| LAMA4: Laminin α4 recombinant protein (R&D Systems) coated on culture plates | – | – | – | 51.4 | – | significant decrease | higher ROS levels |
| B1 | – | – | – | 91.16 | – | significant decrease | – |

Source: patent US20260248734A1, “COMPOSITIONS AND METHODS FOR TREATING METABOLIC DISEASES/DISORDERS” (priority 2023, published 2026)
